Experimental data published in paper PMC7753147, “High-throughput determination of protein affinities using unmodified peptide libraries in nanomolar scale” (iScience, 2020).
pKi: −log10 of the molar value. Where a SMILES comes first, the peptide text is derived from it.

The compounds below were run against T1, gephE (Rattus norvegicus, UniProt Q03555) (assay: TRIC displacement 12-point dose response against gephE-NN1D-Alexa647 complex).
T1 construct: gephE (residues 318-736) was generated; made in house
T1 sequence (Q03555 350-768): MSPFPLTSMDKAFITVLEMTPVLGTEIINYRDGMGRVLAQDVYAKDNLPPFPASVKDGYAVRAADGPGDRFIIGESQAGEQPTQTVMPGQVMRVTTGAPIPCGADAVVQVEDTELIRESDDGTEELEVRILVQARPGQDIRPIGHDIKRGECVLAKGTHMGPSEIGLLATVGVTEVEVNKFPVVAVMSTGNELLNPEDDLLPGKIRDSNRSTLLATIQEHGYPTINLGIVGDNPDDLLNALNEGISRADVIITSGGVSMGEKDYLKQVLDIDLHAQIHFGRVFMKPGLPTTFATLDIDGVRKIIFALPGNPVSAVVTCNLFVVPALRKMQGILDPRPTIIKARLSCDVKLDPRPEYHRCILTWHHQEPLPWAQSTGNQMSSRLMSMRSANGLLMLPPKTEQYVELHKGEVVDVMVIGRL
Format: binding

| Structure (SMILES) | pKi |
| --- | --- |
| CC[C@H](C)[C@H](NC(=O)CNC(=O)[C@H](Cc1ccccc1)NC(=O)[C@H](CC(=O)O)NC(=O)[C@H](CC(N)=O)NC(=O)[C@H](CO)NC(=O)[C@H](CCCNC(=N)N)NC(=O)[C@H](CC(C)C)NC(=O)[C@@H](N)CC(=O)O)C(=O)N[C@H](C(=O)NCC(=O)N[C@@H](CO)C(=O)N[C@@H](CC(C)C)C(=O)N1CCC[C@H]1C(=O)N[C@@H](CCCNC(=N)N)C(N)=O)C(C)C [GlyRβ_Full_Positional_Scan_142] (H-DLRSNDFGIVGSLPR-NH2) | 4.37 |
| CC[C@H](C)[C@H](NC(=O)[C@@H](NC(=O)[C@H](Cc1ccccc1)NC(=O)[C@H](CC(=O)O)NC(=O)[C@H](CC(N)=O)NC(=O)[C@H](CO)NC(=O)[C@H](CCCNC(=N)N)NC(=O)[C@H](CC(C)C)NC(=O)[C@@H](N)CC(=O)O)[C@@H](C)O)C(=O)N[C@H](C(=O)NCC(=O)N[C@@H](CO)C(=O)N[C@@H](CC(C)C)C(=O)N1CCC[C@H]1C(=O)N[C@@H](CCCNC(=N)N)C(N)=O)C(C)C [GlyRβ_Full_Positional_Scan_156] (H-DLRSNDFTIVGSLPR-NH2) | 4.78 |
| CC(C)C[C@H](NC(=O)[C@H](CO)NC(=O)[C@H](Cc1ccccc1)NC(=O)[C@H](CC(=O)O)NC(=O)[C@H](CC(N)=O)NC(=O)[C@H](CO)NC(=O)[C@H](CCCNC(=N)N)NC(=O)[C@H](CC(C)C)NC(=O)[C@@H](N)CC(=O)O)C(=O)N[C@H](C(=O)NCC(=O)N[C@@H](CO)C(=O)N[C@@H](CC(C)C)C(=O)N1CCC[C@H]1C(=O)N[C@@H](CCCNC(=N)N)C(N)=O)C(C)C [GlyRβ_Full_Positional_Scan_164] (H-DLRSNDFSLVGSLPR-NH2) | 4.65 |

More lines, now with the values ahead:

| pKi | Structure (SMILES) |
| --- | --- |
| 4.50 | CC[C@H](C)[C@H](NC(=O)[C@H](CO)NC(=O)[C@H](Cc1c[nH]c2ccccc12)NC(=O)[C@H](CC(=O)O)NC(=O)[C@H](CC(N)=O)NC(=O)[C@H](CO)NC(=O)[C@H](CCCNC(=N)N)NC(=O)[C@H](CC(C)C)NC(=O)[C@@H](N)CC(=O)O)C(=O)N[C@H](C(=O)NCC(=O)N[C@@H](CO)C(=O)N[C@@H](CC(C)C)C(=O)N1CCC[C@H]1C(=O)N[C@@H](CCCNC(=N)N)C(N)=O)C(C)C [GlyRβ_Full_Positional_Scan_128] (H-DLRSNDWSIVGSLPR-NH2) |
| 3.73 | CC[C@H](C)[C@H](NC(=O)[C@H](CO)NC(=O)[C@H](Cc1ccc(O)cc1)NC(=O)[C@H](CC(=O)O)NC(=O)[C@H](CC(N)=O)NC(=O)[C@H](CO)NC(=O)[C@H](CCCNC(=N)N)NC(=O)[C@H](CC(C)C)NC(=O)[C@@H](N)CC(=O)O)C(=O)N[C@H](C(=O)NCC(=O)N[C@@H](CO)C(=O)N[C@@H](CC(C)C)C(=O)N1CCC[C@H]1C(=O)N[C@@H](CCCNC(=N)N)C(N)=O)C(C)C [GlyRβ_Full_Positional_Scan_129] (H-DLRSNDYSIVGSLPR-NH2) |
| 4.67 | CC(C)C[C@H](NC(=O)[C@@H](N)CC(=O)O)C(=O)N[C@@H](CCCNC(=N)N)C(=O)N[C@@H](CO)C(=O)N[C@@H](CC(N)=O)C(=O)N[C@@H](CC(=O)O)C(=O)N[C@@H](Cc1ccccc1)C(=O)N[C@@H](CO)C(=O)N[C@H](C(=O)N[C@H](C(=O)NCC(=O)N[C@@H](CO)C(=O)N[C@@H](CC(C)C)C(=O)N1CCC[C@H]1C(=O)N[C@@H](CCCNC(=N)N)C(N)=O)C(C)C)C(C)C [GlyRβ_Full_Positional_Scan_166] (H-DLRSNDFSVVGSLPR-NH2) |
| 5.05 | CC[C@H](C)[C@H](NC(=O)[C@H](CO)NC(=O)[C@H](Cc1ccccc1)NC(=O)[C@H](CC(=O)O)NC(=O)[C@H](CC(N)=O)NC(=O)[C@H](CO)NC(=O)[C@H](CCCNC(=N)N)NC(=O)[C@H](CC(C)C)NC(=O)[C@@H](N)CC(=O)O)C(=O)N[C@H](C(=O)NCC(=O)N[C@@H](CO)C(=O)N[C@@H](CC(C)C)C(=O)N1CCC[C@H]1C(=O)N[C@@H](CCCNC(=N)N)C(N)=O)[C@@H](C)CC [GlyRβ_Full_Positional_Scan_183] (H-DLRSNDFSIIGSLPR-NH2) |
